ChEMBL document CHEMBL1159241, “Dihydrolicoisoflavone, a new isoflavanone from Swartzia polyphylla” (J Nat Prod, 1995)

Assay: Inhibition of protein kinase C

IC50: < 50 mg/L
SMILES: COc1ccc(-c2coc3cc(O)cc(O)c3c2=O)cc1 [BIOCHANIN]
